According to paper PMC6193938, “Characterization of a novel AICARFT inhibitor which potently elevates ZMP and has anti-tumor activity in murine models” (Scientific Reports, 2018):

What was measured:
WEE1 = molecular target: T1, WEE1 (Homo sapiens, UniProt P30291); assay: CEREP protein kinase assay; type: biochemical
T1 construct: purchased CEREP Panlabs (Eurofins)

NCI-H460 xenograft = assay: Antitumor efficacy and tumor metabolites, mouse xenograft, normal folate diet; type: in vivo; conditions: NCI-H460 tumors; after 13 days of treatment; normal chow
RSK1 = molecular target: T2, RSK1 (Homo sapiens, UniProt Q15418); assay: CEREP protein kinase assay; type: biochemical
T2 construct: purchased CEREP Panlabs (Eurofins)
T2 sequence (Q15418 whole entry): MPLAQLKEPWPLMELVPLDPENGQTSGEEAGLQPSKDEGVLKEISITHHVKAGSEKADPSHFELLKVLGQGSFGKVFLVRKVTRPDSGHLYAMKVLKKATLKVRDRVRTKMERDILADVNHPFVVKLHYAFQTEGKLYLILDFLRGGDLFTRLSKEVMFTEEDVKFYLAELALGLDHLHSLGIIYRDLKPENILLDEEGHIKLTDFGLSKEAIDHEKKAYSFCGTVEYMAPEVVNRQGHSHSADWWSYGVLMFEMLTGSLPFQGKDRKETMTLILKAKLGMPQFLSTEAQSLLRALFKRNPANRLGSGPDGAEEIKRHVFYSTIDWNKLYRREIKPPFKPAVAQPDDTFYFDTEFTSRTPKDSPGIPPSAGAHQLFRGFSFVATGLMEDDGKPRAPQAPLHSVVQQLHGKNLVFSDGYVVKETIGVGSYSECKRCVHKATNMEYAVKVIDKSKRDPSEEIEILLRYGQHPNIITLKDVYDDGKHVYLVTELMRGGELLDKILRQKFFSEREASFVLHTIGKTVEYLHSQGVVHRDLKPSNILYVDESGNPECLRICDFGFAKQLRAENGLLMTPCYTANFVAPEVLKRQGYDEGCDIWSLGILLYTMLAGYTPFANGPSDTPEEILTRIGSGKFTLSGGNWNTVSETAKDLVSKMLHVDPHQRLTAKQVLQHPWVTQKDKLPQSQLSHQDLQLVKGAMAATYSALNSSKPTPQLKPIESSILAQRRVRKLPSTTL

CK1e = molecular target: T3, CK1e (Homo sapiens, UniProt P49674); assay: CEREP protein kinase assay; type: biochemical
T3 construct: purchased CEREP Panlabs (Eurofins)
T3 sequence (P49674 whole entry): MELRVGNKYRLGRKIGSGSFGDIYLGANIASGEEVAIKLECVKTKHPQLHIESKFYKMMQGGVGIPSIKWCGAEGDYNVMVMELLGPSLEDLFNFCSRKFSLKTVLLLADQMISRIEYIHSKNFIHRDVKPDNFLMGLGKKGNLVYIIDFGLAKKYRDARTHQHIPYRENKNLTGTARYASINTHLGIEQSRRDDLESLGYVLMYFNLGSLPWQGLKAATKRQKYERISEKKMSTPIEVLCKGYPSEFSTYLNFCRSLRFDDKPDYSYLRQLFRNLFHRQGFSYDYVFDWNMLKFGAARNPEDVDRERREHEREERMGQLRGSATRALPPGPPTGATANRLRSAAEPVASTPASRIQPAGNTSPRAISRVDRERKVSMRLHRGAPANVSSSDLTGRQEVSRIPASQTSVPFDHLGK

AXL = molecular target: T4, AXL (Homo sapiens, UniProt P30530); assay: CEREP protein kinase assay; type: biochemical
T4 construct: purchased CEREP Panlabs (Eurofins)
T4 sequence (P30530 26-894): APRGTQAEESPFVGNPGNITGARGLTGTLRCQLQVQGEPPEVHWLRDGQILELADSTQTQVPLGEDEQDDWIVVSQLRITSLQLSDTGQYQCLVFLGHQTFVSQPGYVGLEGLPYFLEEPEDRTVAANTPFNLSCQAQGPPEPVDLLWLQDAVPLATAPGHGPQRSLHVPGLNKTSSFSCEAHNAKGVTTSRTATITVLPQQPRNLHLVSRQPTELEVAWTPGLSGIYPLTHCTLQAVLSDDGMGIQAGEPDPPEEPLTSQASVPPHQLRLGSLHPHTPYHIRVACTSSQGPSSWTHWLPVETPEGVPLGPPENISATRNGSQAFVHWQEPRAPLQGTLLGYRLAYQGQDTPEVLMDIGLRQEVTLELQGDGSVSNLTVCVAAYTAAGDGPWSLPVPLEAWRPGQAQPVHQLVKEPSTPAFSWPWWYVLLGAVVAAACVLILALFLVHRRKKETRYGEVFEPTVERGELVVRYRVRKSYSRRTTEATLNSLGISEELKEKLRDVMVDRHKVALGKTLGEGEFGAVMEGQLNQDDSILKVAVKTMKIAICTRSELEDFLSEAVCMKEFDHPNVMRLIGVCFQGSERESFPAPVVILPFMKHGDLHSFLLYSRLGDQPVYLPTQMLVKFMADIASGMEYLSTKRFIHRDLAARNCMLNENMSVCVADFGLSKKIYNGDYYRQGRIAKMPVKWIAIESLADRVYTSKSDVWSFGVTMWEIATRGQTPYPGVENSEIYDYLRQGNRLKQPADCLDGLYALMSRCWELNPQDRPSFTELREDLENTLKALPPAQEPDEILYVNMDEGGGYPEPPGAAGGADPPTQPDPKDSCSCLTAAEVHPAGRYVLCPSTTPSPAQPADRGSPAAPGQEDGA

TBK1 = molecular target: T5, TBK1 (Homo sapiens, UniProt Q9UHD2); assay: CEREP protein kinase assay; type: biochemical
T5 construct: purchased CEREP Panlabs (Eurofins)
T5 sequence (Q9UHD2 1-729): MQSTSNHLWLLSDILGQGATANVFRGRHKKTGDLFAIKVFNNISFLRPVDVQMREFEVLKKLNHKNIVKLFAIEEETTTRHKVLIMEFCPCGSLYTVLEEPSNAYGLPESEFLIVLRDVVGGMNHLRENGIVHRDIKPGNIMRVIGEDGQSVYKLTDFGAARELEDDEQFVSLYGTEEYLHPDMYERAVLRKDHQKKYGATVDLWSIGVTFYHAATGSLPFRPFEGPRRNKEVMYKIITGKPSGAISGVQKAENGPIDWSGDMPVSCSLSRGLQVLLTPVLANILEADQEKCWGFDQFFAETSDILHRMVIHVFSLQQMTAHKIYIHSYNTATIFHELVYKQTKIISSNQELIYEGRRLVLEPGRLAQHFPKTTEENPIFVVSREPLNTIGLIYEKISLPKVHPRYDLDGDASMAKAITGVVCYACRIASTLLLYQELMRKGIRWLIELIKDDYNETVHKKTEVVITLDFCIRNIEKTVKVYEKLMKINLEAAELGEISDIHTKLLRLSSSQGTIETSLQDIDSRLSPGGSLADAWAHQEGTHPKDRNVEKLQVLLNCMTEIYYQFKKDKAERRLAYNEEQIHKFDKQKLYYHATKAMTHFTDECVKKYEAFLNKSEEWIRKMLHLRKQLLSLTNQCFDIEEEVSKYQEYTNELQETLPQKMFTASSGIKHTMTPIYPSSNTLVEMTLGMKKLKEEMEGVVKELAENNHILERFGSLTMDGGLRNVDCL

T1 sequence (P30291 whole entry): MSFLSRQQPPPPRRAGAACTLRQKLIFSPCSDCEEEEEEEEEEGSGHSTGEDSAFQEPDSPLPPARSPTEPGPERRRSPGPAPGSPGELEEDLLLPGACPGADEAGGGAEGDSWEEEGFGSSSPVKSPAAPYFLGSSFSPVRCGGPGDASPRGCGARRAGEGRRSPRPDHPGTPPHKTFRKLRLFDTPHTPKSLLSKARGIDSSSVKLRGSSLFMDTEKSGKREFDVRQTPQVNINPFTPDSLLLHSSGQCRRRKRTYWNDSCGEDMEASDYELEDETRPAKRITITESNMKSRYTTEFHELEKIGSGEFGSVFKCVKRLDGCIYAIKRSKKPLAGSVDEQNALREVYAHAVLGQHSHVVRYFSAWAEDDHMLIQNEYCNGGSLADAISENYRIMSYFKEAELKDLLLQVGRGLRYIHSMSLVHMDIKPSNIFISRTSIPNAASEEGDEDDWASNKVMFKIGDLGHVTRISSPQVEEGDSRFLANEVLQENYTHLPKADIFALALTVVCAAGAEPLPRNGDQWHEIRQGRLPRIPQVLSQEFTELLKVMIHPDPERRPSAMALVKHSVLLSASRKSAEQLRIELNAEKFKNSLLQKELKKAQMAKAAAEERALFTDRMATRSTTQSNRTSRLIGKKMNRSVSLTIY

SMILES: O=c1[nH]ccc2cc(F)c(NS(=O)(=O)c3ccc(N4CC[C@@H](O)C4)s3)cc12 [LSN3213128, N-(6-Fluoro-1-oxo-1,2-dihydroisoquinolin-7-yl)-5-[(3R)-3-hydroxypyrrolidin-1-yl]thiophene-2-sulfonamide]
- inhibition at 0.2 µM (WEE1; @ 0.2 uM): 1.15%
- inhibition at 2 µM (WEE1; @ 2 uM): 7.31%
- inhibition at 20 µM (WEE1; @ 20 uM): 14.2%
- tumor ZMP levels (NCI-H460 xenograft): dramatically elevated
- tumor dUMP levels (NCI-H460 xenograft): remained constant
- inhibition at 0.2 µM (RSK1; @ 0.2 uM): 0.638%
- inhibition at 2 µM (RSK1; @ 2 uM): 8.18%
- inhibition at 20 µM (RSK1; @ 20 uM): 11.4%
- inhibition at 0.2 µM (CK1e; @ 0.2 uM): -4.69%
- inhibition at 2 µM (CK1e; @ 2 uM): -1.12%
- inhibition at 20 µM (CK1e; @ 20 uM): 7.65%
- inhibition at 0.2 µM (AXL; @ 0.2 uM): -9.2%
- inhibition at 2 µM (AXL; @ 2 uM): 2.93%
- inhibition at 20 µM (AXL; @ 20 uM): 22.2%
- inhibition at 0.2 µM (TBK1; @ 0.2 uM): -3.62%
- inhibition at 2 µM (TBK1; @ 2 uM): 13.1%
- inhibition at 20 µM (TBK1; @ 20 uM): 11%
